Holding throughout (format): cell-based
Data set [1] concerns IRS-2. The data set can be described thus: IRS-2 association with p85 of PI3-kinase in MCF-7 cells. The following applies: 5 mins., ATA or EB 300 μg/ml, IGF-1 20 ng/ml. As for the experimental part:
FIG. 4 is the effect of ATA and EB on tyrosine phosphorylation of IRS-2: MCF-7 cells were treated as in FIG. 3. Total cell extracts, solubilized in Buffer C, were immunoprecipitated with an antibody to IRS-2. The immunocomplexes, precipitated with protein A-Sepharose beads were subjected to 7.5% SDS-PAGE, followed by immunoblotting with a phosphotyrosine antibody and an antibody to the 85-kDA subunit of PI3-kinase.
(§1) Cells were solubilized in Buffer A or C. Extracts were immunoprecipitated at 4° C. with antibodies to IRS-1, IRS-2, IGF-1 or IR receptor or Grb2, adsorbed on protein A-Sepharose beads. The immunocomplexes were pelleted by centrifugation at 12,000×g and washed twice with Buffer A, and twice with Buffer A containing 0.1% Triton x-100. The pellets were then suspended in Laemmli sample buffer and resolved on 7.5% SDS-PAGE.
(§2) Nitrocellulose blots of proteins were incubated with the antibodies, and proteins were detected by enhanced chemiluminescence using horseradish peroxidase-labeled protein A, horseradish peroxidase-labeled anti rabbit IgG or horseradish peroxidase-labeled anti-mouse IgG.
(§3) MCF-7 cells were stimulated with ATA, EB or IGF-1, solubilized and immunoprecipitated with anti IRS-1 or IRS-2 antibodies, separated by SDS-PAGE and immunoblotted with anti-phosphotyrosine antibody. […] The association of IRS-1 with Grb-2 was evaluated in lysates from treated cells which were immunoblotted with antibodies to either phosphotyrosine or IRS-1.

Data set [2] has as its system IRS-1. Description: IRS-1 tyrosine phosphorylation and association with p85/Grb2 in MCF-7 cells. The note with it: 5 mins., ATA or EB 300 μg/ml, IGF-1 20 ng/ml. The protocol: FIG. 3 is the effect of ATA and EB on tyrosine phosphorylation or IRS-1: MCF-7 cells grown in 100 mm dishes, were treated with ATA or EB, each at 300 μg/ml, or 20 ng/ml IGF-1 for 5 mins. Total cell extracts, solubilized in Buffer A, were subjected to immunoprecipitation with antibodies to IRS-1 (a) or Grb2 (b). The immunocomplexes, precipitated with protein G-Sepharose beads, were subjected to 7.5% SDS-PAGE followed by immunoblotting with a phosphotyrosine antibody, an antibody to the 85-kDa subunit of PI3-kinase or antibody to IRS-1.
as §1, §2, §3

The target of data set [3] is T1, IGF-1 receptor β subunit (Homo sapiens, UniProt P08069).
T1 construct: endogenous in cells; host or cells: MCF-7
T1 sequence (P08069 741-1367 limits assumed): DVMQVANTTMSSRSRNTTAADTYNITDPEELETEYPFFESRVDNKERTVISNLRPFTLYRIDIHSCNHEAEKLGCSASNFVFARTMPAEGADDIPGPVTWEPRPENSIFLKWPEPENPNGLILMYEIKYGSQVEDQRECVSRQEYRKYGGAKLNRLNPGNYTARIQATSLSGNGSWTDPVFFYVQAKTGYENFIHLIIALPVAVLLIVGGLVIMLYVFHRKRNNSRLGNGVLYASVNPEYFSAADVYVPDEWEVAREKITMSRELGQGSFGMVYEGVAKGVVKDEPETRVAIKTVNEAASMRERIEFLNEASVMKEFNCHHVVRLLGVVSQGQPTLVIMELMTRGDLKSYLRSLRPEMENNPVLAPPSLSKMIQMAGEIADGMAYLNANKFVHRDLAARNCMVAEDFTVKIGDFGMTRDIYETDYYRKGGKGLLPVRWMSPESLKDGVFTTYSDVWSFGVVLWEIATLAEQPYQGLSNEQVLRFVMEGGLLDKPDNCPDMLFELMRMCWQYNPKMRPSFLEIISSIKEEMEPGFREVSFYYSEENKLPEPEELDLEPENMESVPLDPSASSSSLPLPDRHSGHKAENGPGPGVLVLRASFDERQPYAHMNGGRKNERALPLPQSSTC
T1 sequence (P08069 31-736 limits assumed): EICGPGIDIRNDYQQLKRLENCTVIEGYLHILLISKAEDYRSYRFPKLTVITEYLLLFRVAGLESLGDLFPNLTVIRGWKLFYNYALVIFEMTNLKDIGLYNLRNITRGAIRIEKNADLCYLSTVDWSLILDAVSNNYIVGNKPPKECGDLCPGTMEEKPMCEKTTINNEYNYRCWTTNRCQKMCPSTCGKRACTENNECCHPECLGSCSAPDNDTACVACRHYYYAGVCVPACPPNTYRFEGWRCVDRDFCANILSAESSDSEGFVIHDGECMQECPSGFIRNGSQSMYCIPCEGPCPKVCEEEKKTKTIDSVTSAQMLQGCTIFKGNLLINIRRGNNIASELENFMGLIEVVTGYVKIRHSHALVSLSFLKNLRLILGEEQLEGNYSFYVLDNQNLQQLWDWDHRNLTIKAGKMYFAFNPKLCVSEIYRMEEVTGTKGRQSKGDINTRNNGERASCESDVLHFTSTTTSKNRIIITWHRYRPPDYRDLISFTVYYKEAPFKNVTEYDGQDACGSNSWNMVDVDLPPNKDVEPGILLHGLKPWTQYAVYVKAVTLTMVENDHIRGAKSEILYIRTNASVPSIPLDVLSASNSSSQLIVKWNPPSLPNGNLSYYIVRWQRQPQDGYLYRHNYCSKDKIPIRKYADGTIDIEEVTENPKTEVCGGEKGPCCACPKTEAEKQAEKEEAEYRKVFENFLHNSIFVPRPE
The data set can be described thus: Tyrosine phosphorylation of IGF-1 receptor in MCF-7 cells. The note with it: 5 mins., ATA, EB each at 300 μg/ml. The protocol:
FIG. 6 is the effect of ATA and EB on tyrosine phosphorylation of IGF-1 receptor: MCF-7 cells, grown in 100 mm dishes, were treated with ATA, EB each at 300 μg/ml, or 20 ng/ml IGF-1 for 5 mins. Total cell extracts, solubilized in Buffer A, were immunoprecipitated with IGF1R antibody. The immunocomplexes precipitataed with protein G-Sepharose beads, were subjected to 7.5% SDS-PAGE followed by immunoblotting with a phosphotyrosine antibody. The membrane, after ECL detection, was stripped of bound antibody and reblotted with IGF1R antibody (IGF1R).
as §1
Nitrocellulose blots of proteins were incubated with the antibodies, and proteins were detected by enhanced chemiluminescence using horseradish peroxidase-labeled protein A, horseradish peroxidase-labeled anti rabbit IgG or horseradish peroxidase-labeled anti-mouse IgG. […]

Data set [4] relates to MCF-7 cells. Description: Cell death estimation, cycloheximide-exposed MCF-7 cells (trypan blue). The following applies: for Effect on percent of dead cells: cells exposed to CX for 48 hours, compared with Control not exposed to CX. The protocol:
Subconfluent cultures of MCF-7 cells in 35 mm dishes, were deprived of serum for 20 hours and then exposed to 30 μg/ml cycloheximide in the presence or absence of increasing concentrations of fractionated ATA, crude ATA or EB. After 48 hours, the cells were detached with trypsin. The medium and the detached cells were pooled and centrifuged at 1000×g for 10 mins. Cell viability was estimated by adding an equivalent volume of trypan blue solution to an aliquot of suspended cells. Stained and unstained cells were counted on a hemocytometer (10^3 cells were counted for each determination).
Subconfluent, 20 hours starved MCF-7 cells were exposed to 30 μg/ml
of cycloheximide in the presence of increasing
concentrations of fractionated ATA (0, 6, 12, 25, 50 μg/ml). After
48 hours, percent of dead cells was
determined as described under "Experimental procedures". In the
presence of cycloheximide only, 60-70% of
the cells were dead after 48 hours.
Cultures of […] cells were exposed to 30 μg CX for 48 hours in the presence of EB, ATA, IGF-1, or nothing.

The test system of data set [5] is 3T3 L1 adipocytes. The data set can be described thus: Glycogen synthesis in 3T3 L1 adipocytes. The following applies: 20 mins., EB, ATA 200 μg/ml, insulin 600 ng/ml. The protocol:
FIG. 11 is the metabolic effects in 3T3 L1 adipocytes: Fully differentiated 3T3 L1 adipocytes were incubated with EB, ATA or fuchsin (FUCH) each at 200 μg/ml, or with 600 ng/ml of insulin for 20 mins. (A, B, C) or 5 mins. (D). CON indicates no additive.
B--Glycogen synthesis. Cells were incubated with (^14 C)-glucose for 10 mins. Radioactivity was determined in the precipitated glycogen fraction.

Structures are written as SMILES. Values after ≈ are worked out from the molar mass of the structure shown.

These results are taken from patent publication US6020374A, “Biologically active synthetic dye compounds” (priority 1998, dated 2000).

Turning to `Cc1cc(-c2ccc(N=Nc3ccc4c(S(=O)(=O)O)cc(S(=O)(=O)O)c(N)c4c3O)c(C)c2)ccc1N=Nc1ccc2c(S(=O)(=O)O)cc(S(=O)(=O)O)c(N)c2c1O` [EB, Evan's Blue], in data set [1], the “Association of p85 subunit of PI3-k with IRS-2” value was “p85 precipitates”. Also, in data set [2], the “Association of IRS-1 with Grb-2” value is “IRS-1 co-precipitated with Grb2”, the “Association of p85 subunit of PI3-k with IRS-1” value is “p85 precipitates with IRS-1” and the “Phosphorylation of IRS-1” value is given as “stimulated the phosphorylation of IRS-1”. The “Tyrosine phosphorylation of IGF-1 receptor β subunit” value in data set [3] is “phosphorylated the IGF-1 receptor β subunit”. Besides, the “Effect on percent of dead cells” value in data set [4] is “reduced the percent of dead cells to that observed in cells not exposed to CX”. Moreover, the Glycogen synthesis entry in data set [5] is on record as “increase”.

As to `O=C(O)C1=CC(=C(c2ccc(O)c(C(=O)O)c2)c2ccc(O)c(C(=O)O)c2)C=CC1=O` [ATA, Aurintricarboxylic acid], the “Association of p85 subunit of PI3-k with IRS-2” value in data set [1] is given as “p85 precipitates”. For the same compound, in data set [2], the “Association of IRS-1 with Grb-2” value is “IRS-1 co-precipitated with Grb2”, the “Association of p85 subunit of PI3-k with IRS-1” value was “p85 precipitates with IRS-1” and the “Phosphorylation of IRS-1” value is listed as “stimulated the phosphorylation of IRS-1”. Also, in data set [3], the “Tyrosine phosphorylation of IGF-1 receptor β subunit” value is recorded as “phosphorylated the IGF-1 receptor β subunit”. The Percent dead cells in data set [4] (30 μg CX, 48 hours, ATA 100 μg/ml) is reported as 8 ± 3%. The IC50 in data set [4] (Homo sapiens, MCF7, starved MCF-7 cells, 30 μg/ml cycloheximide, 48 hours, read-out: IC50, concentration which inhibits 50% of cell death induced by cycloheximide) is 18 µg/mL (≈ 42.6 µM). The “Effect on percent of dead cells” value in data set [4] was “reduced the percent of dead cells to that observed in cells not exposed to CX”. Also, the Glycogen synthesis entry in data set [5] is reported as “increase”.
